Reference: PMC3268193 (British Journal of Pharmacology, 2012)
Substitutions are numbered along the chain they refer to.

What was measured:
P2X1 Cys2(1-3) chimera = target: T1, P2X1 Cys2(1-3) chimera (Homo sapiens, UniProt P51575, A118P/DEL120-123/E128S/G124S/G131D/INS125RVHNAT/K127L/S130A); assay: Two-electrode voltage clamp, chimera P2X1 Cys2; format: cell-based
T1 sequence (P51575 with tags, fused parts or gaps A118P/DEL120-123/G124S/INS125RVHNAT/K127L/E128S/S130A/G131D): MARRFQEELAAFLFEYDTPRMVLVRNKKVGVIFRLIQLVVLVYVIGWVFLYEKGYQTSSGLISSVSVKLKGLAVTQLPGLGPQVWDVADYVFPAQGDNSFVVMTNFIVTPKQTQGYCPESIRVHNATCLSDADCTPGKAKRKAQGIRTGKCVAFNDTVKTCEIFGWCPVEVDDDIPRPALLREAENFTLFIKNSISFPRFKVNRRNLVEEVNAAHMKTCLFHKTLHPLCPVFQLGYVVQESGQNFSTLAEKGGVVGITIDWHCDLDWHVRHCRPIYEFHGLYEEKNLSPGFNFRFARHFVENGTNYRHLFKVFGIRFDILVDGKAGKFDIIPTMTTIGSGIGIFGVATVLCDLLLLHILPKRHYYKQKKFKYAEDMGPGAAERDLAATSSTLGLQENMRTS

[1] = target: T2, P2X1 receptor mutant R139M (Homo sapiens, UniProt P51575, R139M); assay: Two-electrode voltage clamp, P2X1 mutant R139M; format: cell-based
T2 sequence (P51575 1-399 R139M): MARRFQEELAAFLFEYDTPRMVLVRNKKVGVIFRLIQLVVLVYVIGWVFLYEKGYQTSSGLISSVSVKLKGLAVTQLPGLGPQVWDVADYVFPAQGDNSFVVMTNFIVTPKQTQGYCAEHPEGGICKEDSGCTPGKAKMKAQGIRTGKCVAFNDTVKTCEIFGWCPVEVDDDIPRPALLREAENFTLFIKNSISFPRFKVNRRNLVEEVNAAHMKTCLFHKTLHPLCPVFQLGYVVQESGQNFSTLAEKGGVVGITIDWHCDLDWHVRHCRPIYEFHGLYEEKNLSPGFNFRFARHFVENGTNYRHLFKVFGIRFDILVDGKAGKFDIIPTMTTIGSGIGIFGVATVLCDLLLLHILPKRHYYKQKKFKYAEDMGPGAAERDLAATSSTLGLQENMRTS

P2X7 receptor = conditions: ref Fonfria et al., 2008; cited from earlier work
[2] = target: T3, P2X1 receptor mutant K138D (Homo sapiens, UniProt P51575, K138D); assay: Two-electrode voltage clamp, P2X1 mutant K138D; format: cell-based
T3 sequence (P51575 1-399 K138D): T2 sequence (P51575 1-399 R139M) with K138D, M139R

[3] = target: T4, P2X1 receptor mutant KAKRK → EADRK(2) (Homo sapiens, UniProt P51575, K136E/K138D); assay: Two-electrode voltage clamp, P2X1 mutant X1-EADRK; format: cell-based
T4 sequence (P51575 1-399 K136E/K138D): T2 sequence (P51575 1-399 R139M) with K136E, K138D, M139R

[4] = target: T5, P2X1 receptor mutant KAKRK → EADML(4) (Homo sapiens, UniProt P51575, K136E/K138D/K140L/R139M); assay: Two-electrode voltage clamp, P2X1 mutant X1-EADML; format: cell-based
T5 sequence (P51575 1-399 K136E/K138D/R139M/K140L): T2 sequence (P51575 1-399 R139M) with K136E, K138D, K140L

[5] = target: T6, P2X1 receptor mutant KAKRK → ELDML(5) (Homo sapiens, UniProt P51575, A137L/K136E/K138D/K140L/R139M); assay: Two-electrode voltage clamp, P2X1 mutant X1-ELDML; format: cell-based
T6 sequence (P51575 1-399 K136E/A137L/K138D/R139M/K140L): T2 sequence (P51575 1-399 R139M) with K136E, A137L, K138D, K140L

Cc1ccc(C(=O)Nc2ccc(S(=O)(=O)O)c3cc(S(=O)(=O)O)cc(S(=O)(=O)O)c23)cc1NC(=O)c1cccc(NC(=O)Nc2cccc(C(=O)Nc3cc(C(=O)Nc4ccc(S(=O)(=O)O)c5cc(S(=O)(=O)O)cc(S(=O)(=O)O)c45)ccc3C)c2)c1 [suramin]
Increase in suramin sensitivity compared with WT P2X1 (P2X1 Cys2(1-3) chimera): 15 fold
Effect of mutation on suramin sensitivity [1]: no effect
Effectiveness at guinea pig compared with rat and human P2X7 isoforms (P2X7 receptor): ~10 fold

O=C(Nc1cc(C(=O)Nc2ccc(S(=O)(=O)O)cc2S(=O)(=O)O)cc(C(=O)Nc2ccc(S(=O)(=O)O)cc2S(=O)(=O)O)c1)Nc1cc(C(=O)Nc2ccc(S(=O)(=O)O)cc2S(=O)(=O)O)cc(C(=O)Nc2ccc(S(=O)(=O)O)cc2S(=O)(=O)O)c1 [NF449, 4,4′,4′′,4′′′-(carbonylbis(imino-5,1,3-benzenetriyl-bis(carbonylimino)))tetrakis-benzene-1,3-disulphonic acid]
Reduction in NF449 sensitivity compared with P2X1 WT (P2X1 Cys2(1-3) chimera): ~20 fold
Reduction in NF449 sensitivity compared with P2X1 WT [2]: ~10 fold
Reduction of ATP-evoked current ([1]; 1 nM antagonist, EC90 ATP (10 µM)): 40–70%
Extra decrease in NF449 sensitivity compared with the K138D mutant [3]: ~15 fold
Reduction in NF449 sensitivity compared with WT P2X1 [4]: ~600 fold
Reduction in NF449 sensitivity compared with WT P2X1 [5]: ~700 fold
